In ChEMBL document CHEMBL3137667, “[Drug-induced liver injury; fourteenth updated edition of the bibliographic database of liver injuries and related drugs]” (Gastroenterol Clin Biol, 2004):

Tests used:
[1] = human, serum, 4383 h
[2] = human
[3] = human; remark: listed apart in the source
[4] = human; remark: listed apart in the source
[5] = human; remark: listed apart in the source
[6] = human; remark: listed apart in the source
[7] = human; remark: listed apart in the source
[8] = human; remark: listed apart in the source
[9] = human; remark: listed apart in the source
[10] = human; remark: listed apart in the source
[11] = Highest frequency of acute liver toxicity observed during clinical trials, expressed as a percentage. [column '% AIGUE' in source]; conditions: human
[12] = human, serum
[13] = human, serum; remark: listed apart in the source
[14] = human; remark: listed apart in the source
[15] = Highest frequency of moderate liver toxicity observed during clinical trials, expressed as a percentage. [column '% BIOL' in source]; conditions: human
[16] = Proposed mechanism(s) of liver damage. [column 'MEC' in source]; conditions: human
[17] = Comments (NB not yet translated). [column 'COMMENTAIRES' in source]; conditions: human
[18] = Presence of at least one case with successful reintroduction. [column 'REINT' in source]; conditions: human
[19] = Times to onset, minimal and maximal, observed in the indexed observations. [column 'DELAI' in source]; conditions: human
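Wherever Hepatotoxicity (association with vascular disease) is given: count of indexed literature references reporting vascular liver injury in humans, e.g. peliosis hepatitis, hepatic veno-occlusive disease or Budd-Chiari syndrome.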
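Wherever Hepatotoxicity (benign tumour) is given: value is a count of indexed literature references citing a benign tumour confirmed by histopathology.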
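Wherever Hepatotoxicity (choleostasis) is given: human cholestatic liver injury, shown by histopathology or by peak ALT or AST elevation over alkaline phosphatase ratio below 2, value counts indexed literature reports.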
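Wherever Hepatotoxicity (chronic liver disease) is given: chronic liver injury confirmed by histopathology or persistently raised serum aminotransferase activity beyond 6 months, value given as the count of indexed literature references.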
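Wherever Hepatotoxicity (cirrhosis) is given: value is a count of indexed literature references reporting cirrhosis confirmed by histopathology.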
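Wherever Hepatotoxicity (cytolytic) is given: human cytolytic liver injury, shown by histopathology or by a ratio above 5 of peak ALT or AST elevation to alkaline phosphatase elevation, value counts indexed references.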
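Wherever Hepatotoxicity (granulomatous hepatitis) is given: value is a count of indexed literature references reporting granulomatous liver disease confirmed by histopathology.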
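Wherever Hepatotoxicity (malignant tumour) is given: malignant tumour confirmed by histopathology, value gives the count of indexed literature references reporting it.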
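Wherever Hepatotoxicity (severe hepatitis) is given: human clinical data: severe hepatitis, meaning potentially life-threatening liver failure or clinically observed cases, the value counts how many indexed literature references report it.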
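Wherever Hepatotoxicity (steatosis) is given: steatosis confirmed by histopathology, value is the count of indexed references.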

| Compound | Hepatotoxicity (chronic liver disease) [1] | Hepatotoxicity (benign tumour) [2] | Hepatotoxicity (steatosis) [3] | Hepatotoxicity (granulomatous hepatitis) [4] | Hepatotoxicity (animal toxicity known) [5] | Hepatotoxicity (association with vascular disease) [6] | Hepatotoxicity (cytolytic) [7] | Hepatotoxicity (cirrhosis) [8] | Hepatotoxicity (malignant tumour) [9] | Hepatotoxicity (choleostasis) [10] | Hepatotoxicity (acute) [11] | Hepatotoxicity (moderate) [12] | Hepatotoxicity (acute) [13] | Hepatotoxicity (severe hepatitis) [14] | Hepatotoxicity (moderate) [15] | Hepatotoxicity (mechanism) [16] | Hepatotoxicity (comment) [17] | Hepatotoxicity (successful reintroduction) [18] | Hepatotoxicity (time to onset) [19] | other results |
| --- | --- | --- | --- | --- | --- | --- | --- | --- | --- | --- | --- | --- | --- | --- | --- | --- | --- | --- | --- | --- |
| CC1(C)[C@H](C(=O)O)N2C(=O)C[C@H]2S1(=O)=O.CCN1CCN(C(=O)N[C@@H](C(=O)N[C@@H]2C(=O)N3C(C(=O)O)=C(CSc4nnnn4C)CS[C@H]23)c2ccc(O)cc2)C(=O)C1=O | 0 | 0 | 0 | 0 | yes | 0 | 0 | 0 | 0 | 0 | – | – | – | – | – | – | – | – | – | – |
| Cc1cn([C@H]2CC[C@@H](CO)O2)c(=O)[nH]c1=O | 0 | 0 | 0 | 0 | yes | 0 | 0 | 0 | 0 | 0 | 0% | 1 | 0 | 0 | 30% | – | – | – | – | – |
| CN(C)[C@@H]1C(O)=C(C(N)=O)C(=O)[C@@]2(O)C(O)=C3C(=O)c4c(O)ccc(Cl)c4[C@@](C)(O)[C@H]3C[C@@H]12 [CHLORTETRACYCLINE] | 0 | 0 | 3 | 0 | yes | 0 | 1 | 0 | 0 | 1 | 0% | 0 | 4 | 0 | 0% | – | – | – | – | – |
| CC(C)/N=c1\cc2n(-c3ccc(Cl)cc3)c3ccccc3nc-2cc1Nc1ccc(Cl)cc1 [CLOFAZIMINE] | 0 | 0 | 0 | 0 | yes | 0 | 0 | 0 | 0 | 1 | 5.6% | 2 | 1 | 0 | 16% | – | – | – | – | – |
| N#CN [CYANAMIDE] | 11 | 0 | 0 | 0 | yes | 0 | 0 | 2 | 0 | 2 | 0% | 0 | 2 | 0 | 0% | – | – | – | – | – |
| NC[C@@H]1CC[C@@H](N)[C@@H](O[C@H]2[C@H](O)[C@@H](O[C@H]3O[C@H](CO)[C@@H](O)[C@H](N)[C@H]3O)[C@H](N)C[C@@H]2N)O1 [DIBEKACIN] | 0 | 0 | 0 | 0 | yes | 0 | 0 | 0 | 0 | 0 | 0% | 1 | 0 | 0 | 13.7% | – | – | – | – | – |
| C[C@]12CC[C@@H]3c4ccc(O)cc4CC[C@H]3[C@@H]1CC[C@@H]2O [ESTRADIOL] | 0 | 0 | 0 | 0 | yes | 0 | 0 | 0 | 0 | 1 | 0% | 0 | 1 | 0 | 0% | – | – | – | – | – |
| CC(=O)O[C@]1(C(C)=O)CC[C@H]2[C@@H]3C=C(C)C4=CC(=O)CC[C@]4(C)[C@H]3CC[C@@]21C [MEGESTROL ACETATE] | 0 | 0 | 0 | 0 | yes | 0 | 1 | 0 | 0 | 0 | 2.7% | 4 | 1 | 0 | 12.8% | – | – | – | – | – |
| O=C1Nc2ccc(Cl)cc2C(c2ccccc2)=NC1O (configuration not stated) [OXAZEPAM] | 0 | 0 | 0 | – | yes | 1 | – | 0 | 0 | – | – | 0 | 0 | – | – | – | – | – | – | Hepatotoxicity (acute) ([11]; Liver): 0%; Hepatotoxicity (granulomatous hepatitis) ([4]; Liver): 0; Hepatotoxicity (cytolytic) ([7]; Liver): 0; Hepatotoxicity (severe hepatitis) ([14]; Liver): 0; Hepatotoxicity (moderate) ([15]; Liver): 0%; Hepatotoxicity (choleostasis) ([10]; Liver): 0 |
| Cc1ccc(-c2nc3ccc(C)cn3c2CC(=O)N(C)C)cc1 [ZOLPIDEM] | 0 | 0 | 0 | 0 | – | 0 | 2 | 0 | 0 | 0 | 0% | 3 | 2 | 0 | 0.4% | Dose-dependant | ENCEPHALOPATHIE | yes | 1 day - 3 days | – |
| INTERFERON ALFA-2A | 0 | 0 | 0 | 0 | – | 0 | 7 | 1 | 0 | 2 | 35.7% | 50 | 10 | 2 | 92% | Allergic, Dose-dependant | AC_ANTI-ML/-N AGGRAVATION_HAI/HVB I/PARACETAMOL CBP | yes | 1 week - 9 months | – |
| INTERFERON ALFA-2B | 0 | 0 | 0 | 3 | – | 0 | 8 | 0 | 0 | 2 | 0% | 52 | 13 | 7 | 87.5% | Dose-dependant | AGGRAVATION_CBP/HEPATITE_AUTOIMMUNE/HVB/HVC_CHRONIQUE CHOLANGITE | yes | 1 week - 1 year | – |
| INTERFERON BETA | 0 | 0 | 0 | 0 | – | 0 | 5 | 0 | 0 | 0 | 31.2% | 33 | 10 | 1 | 100% | Allergic, Dose-dependant | AC_ANTI-N/-ML | yes | 3 days - 2 years | – |
